Key:
Botrytis cinerea = assay: Example 1: activity against the grey mold Botrytis cinerea in the microtiterplate test; type: cell-based; conditions: 31 ppm, 7 days after inoculation, relative to active compound-free control (100%)
Septoria tritici = assay: Comparative Example 1: activity against leaf blotch on wheat caused by Septoria tritici (microtiter plate); type: cell-based; conditions: 7 days after inoculation
Leptosphaeria nodorum = assay: Comparative Example 2: activity against wheat leaf spots caused by Leptosphaeria nodorum (microtiter plate); type: cell-based; conditions: 7 days after inoculation
Ustilago maydis = assay: Example 12: activity against Ustilago maydis in the microtiterplate test; conditions: 31 ppm, DOB media pH 7
Description: The stock solutions were mixed according to the ratio, pipetted onto a micro titer plate (MTP) and diluted with water to the stated concentrations. A spore suspension of the Ustilago maydis isolates in a DOB media (ph 7) was then added.

Fusarium culmorum = assay: Example 2: activity against Fusarium culmorum in the microtiterplate test; conditions: 31 ppm, 7 days after inoculation, relative to active compound-free control (100%)
Description: The stock solutions were mixed according to the ratio, pipetted onto a micro titer plate (MTP) and diluted with water to the stated concentrations. A spore suspension of Fusarium culmorum in an aqueous biomalt or yeast-bactopeptone-glycerine or DOB solution was then added. The plates were placed in a water vapor-saturated chamber at a temperature of 18° C. Using an absorption photometer, the MTPs were measured at 405 nm 7 days after the inoculation.

`Cc1cc(C2=NC(C)C(C)(C)Oc3ccccc32)cnc1C` (stereo not drawn) [Ex-11] was tested, and the “growth of the pathogen” value (Botrytis cinerea) was 0%, the “Growth (%) at 125 pm SEPTTR” value (Septoria tritici) was 52% and the “Growth (%) at 8 pm LEPTNO” value (Leptosphaeria nodorum) was 6%.
For `Cc1cc(C2=NC(C(C)(C)C)COc3ccccc32)cnc1C` (stereo not drawn) [Ex-1], the “growth of the pathogen” value (Botrytis cinerea) was 0% and the “growth of the pathogen” value (Ustilago maydis) was 0%.
With `COCC1(C)Oc2ccccc2C(c2cnc(C)c(C)c2)=NC1(C)C` (stereo not drawn) [Ex-9] the “growth of the pathogen” value (Botrytis cinerea) was 0%.
In the case of `Cc1cc(C2=NC(C(C)(C)C)C(C)Oc3ccccc32)cnc1C` (stereo not drawn) [Ex-24], the “growth of the pathogen” value (Ustilago maydis) was 0%.
`Cc1cc(C2=NC(C)(C)C(C)(C)Oc3ccccc32)cnc1C(F)F` [Ex-4] was tested, and the “growth of the pathogen” value (Botrytis cinerea) was 0%.
For `Cc1cc(C2=NC(=O)C3(CC3)Oc3c(F)cccc32)cnc1C(F)F` [Ex-41], the “growth of the pathogen” value (Ustilago maydis) was 0%.
For `Cc1cc(C2=NC(C)(C)C(C)(C)Oc3ccccc32)cnc1C` [Ex-3], the “growth of the pathogen” value (Botrytis cinerea) was 0%, the “Growth (%) at 125 pm SEPTTR” value (Septoria tritici) was 64% and the “Growth (%) at 8 pm LEPTNO” value (Leptosphaeria nodorum) was 30%. The “growth of the pathogen” value (Fusarium culmorum) was 1%.
`Cc1cc(C2=NCC(C)(C)Oc3ccccc32)cnc1C(F)F` [Ex-8] was tested, and the “growth of the pathogen” value (Botrytis cinerea) was 0%.
`Cc1cc(C2=NCC(C)(C)Oc3ccccc32)cnc1C` [Ex-2] was tested, and the “growth of the pathogen” value (Botrytis cinerea) was 0%, the “Growth (%) at 125 pm SEPTTR” value (Septoria tritici) was 51% and the “Growth (%) at 8 pm LEPTNO” value (Leptosphaeria nodorum) was 4%. The “growth of the pathogen” value (Fusarium culmorum) was 1%.
`Cc1cc(C2=NCCOc3ccccc32)cnc1C` [D1, reference compound] was tested, and the “Growth (%) at 125 pm SEPTTR” value (Septoria tritici) was 98% and the “Growth (%) at 8 pm LEPTNO” value (Leptosphaeria nodorum) was 45%.
With `COCC1(C)Oc2ccccc2C(c2cnc(C(F)F)c(C)c2)=NC1(C)C` (stereo not drawn) [Ex-10] the “growth of the pathogen” value (Botrytis cinerea) was 0%.

— patent publication US20240270727A1, “NEW SUBSTITUTED PYRIDINES AS FUNGICIDE” (BASF SE, priority 2021, published 2024)
